From patent publication US20110123483A1, “HMGB1 FOR CANCER TREATMENT” (DEUTSCHES KREBSFORSCHUNGSZENTRUM, priority 2009, published 2011) come the findings set out here.

Common to all, as to format: cell-based, human
For test [1], the system named is U251MG glioblastoma cells. Briefly: Cytotoxicity assay, cell survival by crystal violet staining. The protocol:
20,000 U251MG glioblastoma cells or human astrocytic cells (ScienCell) were plated into 96-well plates. After 24 h cells were treated with rhHMGB1 (Sigma Aldrich) or rat recombinant HMGB1 (generously provided by Angelika Bierhaus, Heidelberg, Germany), and TRAIL (for 24 h) or Temozolomide (for 72 h) alone or in combination, respectively. […] Cell proliferation was assessed by seeding 50,000 U251 MG cells in 6 cm culture plates and treatment with rhHMGB1, followed by counting the cells in a Neubauer chamber at day 0, 2, 4 and 5.

Test [2] concerns U251 MG cells. Briefly: ROS measurement by DCF fluorescence and FACS analysis. Particulars: co-treatment with rhHMGB1 (FIG. 3A). The procedure:
For measurement of reactive oxygen species (ROS) and mitochondrial membrane potential (MMP) 1.5×10^6 U251 MG cells were seeded in 6 cm plates, treated with 40 nM rhHMGB1 for 24 h and incubated with the fluorescent DiOC6 (3,3′-dihexyloxacarbocyanine iodide, 40 nmol/ll, Sigma Chemical Co., St. Louis, Mo.) or with the fluorescent H2DCF-DA (dichlorodihydrofluorescein diacetate, 10 μM, Invitrogen) for 1 h at 37° C., respectively. The cells were trypsinized and centrifuged at 2,000 rpm for 5 min at 4° C. The supernatant was discarded and the pellet was washed 2× with sterile Dulbecco's PBS containing 0.1% fetal calf serum on ice and again centrifuged at 2,000 rpm for 5 min at 4° C. The pellet was resuspended in 500 μl sterile Dulbecco's PBS on ice. Oxidation of H2DCF to DCF by ROS and DiOC6 accumulation in mitochondria were measured immediately at FL-1 by flow cytometry using a FACScalibur (Beckton Dickinson, Heidelberg, Germany). Cell cycle was determined by measurement of priopidiumiodide (PI)-uptake of the cells according to standard procedures. Briefly, the cells were harvested and washed twice in sterile Dulbecco's PBS on ice, spun down at 2,000 rpm for 5 min at 4° C. and fixed with 70% ethanol for 30 min at 4° C. Contaminating RNA was eliminated by treatment with 100 μg/ml of RNase A, then 50 μg/ml PI was added and DNA content was measured immediately at FI-2. […]

In the next test the test system is JNK1/2. Briefly: Western blot analysis of JNK1/2 phosphorylation. The conditions noted are these: NAC, rhHMGB1 40 nM (FIG. 3E). The protocol: The U251 MG tumor cells were lysed in lysis buffer containing 20 mmol/L Tris-HCl (pH 7.4), 137 mmol/L NaCl, 10% (v/v) glycerine, 1% Triton X-100, 2 mmol/L EDTA, 100 mmol/L phenylmethylsulfonyl fluoride, and protease inhibitors (Complete mini; Roche Molecular Biochemicals). For the detection of phosphoprotein levels, 10 mmol/L NaPPi, 50 mmol/L NaF, and 20 mmol/L NaVO4 were added to the lysis buffer. After 15 min incubation on ice, the lysates were centrifuged at 14,000×g for 10 min. The total protein concentration of the lysates was measured using the Bradford assay (Bio-Rad). Soluble protein (25-100 μg per lane) was separated on 10% to 15% polyacrylamide gels and blotted onto nitrocellulose by standard procedures. […]

The subject of another test is pseudo rho zero cells. Briefly: Survival of pseudo rho zero cells by crystal violet analysis. The conditions noted are these: TRAIL 100 ng/ml, 24 h (FIG. 5). The protocol: U251 glioblastoma cells and non-immortalized human astrocytic cells (ScienCell, USA) were maintained in DMEM (Life Technologies) containing 10% FCS, 4.5 g/L glucose, glutamine, 110 mg/L sodium pyruvate, and 1% penicillin-streptomycin (Life Technologies) and in astrocyte medium (ScienCell) containing 2% FBS (fetal bovine serum) and 1% penicillin-streptomycin at 37° C. and 5% CO2. For the generation of pseudo rho zero cells (0.0), U251 MG cells were treated with low dose (250 ng/ml) ethidiumbromide for 3 months. The cells were supplemented with DMEM (10% FCS, 1% P/S) containing 50 μg/ml L-pyruvate and 5 mg/ml uridine (King and Attardi, 1989).
20,000 U251MG glioblastoma cells or human astrocytic cells (ScienCell) were plated into 96-well plates. After 24 h cells were treated with rhHMGB1 (Sigma Aldrich) or rat recombinant HMGB1 (generously provided by Angelika Bierhaus, Heidelberg, Germany), and TRAIL (for 24 h) or Temozolomide (for 72 h) alone or in combination, respectively. Cell survival was measured by crystal violet staining as described previously (Gdynia et al., 2007). Cell proliferation was assessed by seeding 50,000 U251 MG cells in 6 cm culture plates and treatment with rhHMGB1, followed by counting the cells in a Neubauer chamber at day 0, 2, 4 and 5.

In test [3] the test system is U251 MG cells. Kind of test: Subcellular fractionation and Western blot: cytochrome c release, caspase 3 cleavage. The protocol: The U251 MG tumor cells were lysed in lysis buffer containing 20 mmol/L Tris-HCl (pH 7.4), 137 mmol/L NaCl, 10% (v/v) glycerine, 1% Triton X-100, 2 mmol/L EDTA, 100 mmol/L phenylmethylsulfonyl fluoride, and protease inhibitors (Complete mini; Roche Molecular Biochemicals). For the detection of phosphoprotein levels, 10 mmol/L NaPPi, 50 mmol/L NaF, and 20 mmol/L NaVO4 were added to the lysis buffer. After 15 min incubation on ice, the lysates were centrifuged at 14,000×g for 10 min. The total protein concentration of the lysates was measured using the Bradford assay (Bio-Rad). Soluble protein (25-100 μg per lane) was separated on 10% to 15% polyacrylamide gels and blotted onto nitrocellulose by standard procedures. The membranes were washed, incubated with primary antibody as indicated: mouse anti-human caspase-3 (1:500, Imgenex, San Diego, Calif.); polyclonal rabbit anti-human phosphorylated p44/42 mitogen-activated protein kinase and polyclonal rabbit anti-human phosphorylated stress-activated protein kinase/JNK (1:1,000, Cell Signaling Technology, Inc.); polyclonal anti-rabbit JNK 54/46 (1:1,000, Cell Signaling Technology, Inc.); polyclonal rabbit anti-human IkBalpha (1:500, Santa Cruz Biotechnology, Inc.); mouse monoclonal anti-human BNIP3 (1:10,000, R&D Systems, Inc.); mouse monoclonal anti-human phosphorylated-histone H2A.X (Upstate, Inc.); mouse monoclonal anti-human cytochrome c (1:100, BD Biosciences Pharmingen GmbH, Heidelberg, Germany); mouse anti-human cytochrome c oxidase complex IV (1:100, Molecular Probes, Invitrogen, Karlsruhe, Germany); polyclonal rabbit antimalondialdehyde (1:250, Calbiochem, Merck, Darmstadt, Germany) and mouse monoclonal antibodies to β-tubulin or β-actin (1:3,000, Sigma Chemical Co., St. Louis, Mo.), washed, and incubated with the appropriate secondary antibody (1:3,000; horseradish peroxidase-conjugated, Bio-Rad). Bound antibodies were visualized using an enhanced chemiluminescence detection system (GE-Healthcare, Uppsala, Sweden).
Enrichment of mitochondrial fractions was performed using the ApoAlert Cell Fractionation Kit (Clontech, Mountain View, Calif.) as described previously (Gdynia et al., 2008). Briefly, after centrifugation and several washing steps, the cell pellet was resuspended in ice-cold 1× Fractionation Buffer Mix containing protease inhibitors (Complete mini; Roche Molecular Biochemicals, Indianapolis, Ind.) and 1 mM 1,4-Dithio-DL-threitol solution (DTT). After 10 min incubation on ice, cells were homogenized with a dounce tissue grinder. Efficiency of homogenization was controlled by microscopy. The homogenate was centrifuged at 700×g for 10 min at 4° C. and the resulting supernatant at 10,000×g for 25 min at 4° C. […]

As for `O=c1ccn([C@@H]2O[C@H](CO)[C@@H](O)[C@H]2O)c(=O)[nH]1` [uridine, reference compound], the “effect on rhHMGB1-induced cell death” value in test [1] (uridine 5 mg/ml in culture medium, 48 h (FIG. 3F)) was “substantially inhibited”.

For `CC(=O)N[C@@H](CS)C(=O)O` [NAC, reference compound], in the test on U251 MG cells [2], the “effect on rhHMGB1-induced ROS generation” value is “partially prevented”. In the test with JNK1/2, the “effect on JNK activation after rhHMGB1 treatment” value was “prevented the activation of JNK”. In addition, in test [1] (NAC 1 mM, 48 h co-treatment with rhHMGB1 (FIG. 3B)), the “effect on rhHMGB1-induced cell death” value is “substantially inhibited”.

B1: TRAIL: death ligand TRAIL, positive control for cytotoxicity (protein, UniProt P50591 1-281, looked up)
Tumor necrosis factor ligand …: MAMMEVQGGPSLGQTCVLIVIFTVLLQSLCVAVTYVYFTNELKQMQDKYSKSGIACFLKEDDSYWDPNDEESMNSPCWQVKWQLRQLVRKMILRTSEETISTVQEKQQNISPLVRERGPQRVAAHITGTRGRSNTLSSPNSKNEKALGRKINSWESSRSGHSFLSNLHLRNGELVIHEKGFYYIYSQTYFRFQEEIKENTKNDKQMVQYIYKYTSYPDPILLMKSARNSCWSKDAEYGLYSIYQGGIFELKENDRIFVSVTNEHLIDMDHEASFFGAFLVG
As for B1, the “apoptotic signalling in pseudo rho zero cells” value with pseudo rho zero cells is reported as “still intact”. In addition, the “release of cytochrome c into the cytosolic fraction” value with U251 MG cells [3] (TRAIL 200 ng/ml, 3 h (FIG. 6)) is reported as “detected”. For the same molecule, the “cleavage of caspase 3” value in the test on U251 MG cells [3] (TRAIL treatment (FIG. 6)) was “observed”.
